Patent US12268692B2, “Combinatorial targeted therapy methods” (Postsurgical Therapeutics, Inc., priority 2020, dated 2025)

Experiments:
[1] = cited from earlier work
[2] = In vitro release study of sorafenib and everolimus PLGA microspheres (sample-and-separate method, HPLC); conditions: during in vitro release study
Description: The in vitro release study was carried out by sample-and-separate method. Briefly, 5 mg of microsphere sample (n=3) was taken into 100 mL flask and dispersed in 50 mL of release medium (0.5% Tween 20 and 0.1% sodium azide in phosphate-buffered saline (PBS at pH 7.4)). The flasks were placed in orbital agitating incubator at 37° C. and shacked at 100 rpm. At certain time points, 40 mL medium was taken and centrifuged at 3000 rpm for 2 min. From the supernatant, 30 mL was pipetted and replaced by same amount of the fresh media. In the collected supernatant, the content of the released SOF or EVE was analyzed by high performance liquid chromatography (HPLC).

[3] = test system: NCI H441 lung cell line; test: In vitro cytotoxicity study, XTT assay; type: cell-based, human; conditions: NCI H441 cells
Description: (§1) AGS cells (2×10^4 cells/well) were seeded in a 12-well plates (Corning, Millipore Sigma) with 1 mL of RPMI-1640 medium containing 10% FBS (Fetal Bovine Serum) and incubated for 1 day at 37° C. in a humidified incubator containing 5% CO2. AGS cells were allowed to proliferate for tests of in vitro antitumor activity. In triplicate wells, Group 1 (PBS), Group 2 (ISG formulation without everolimus or trametinib), Group 3 (ISG formulation with 90 μg of everolimus), Group 4 (ISG formulation with 90 μg of trametinib) and Group 5 (ISG formulation with 90 μg of everolimus and 90 μg of tramethinib), Group 6 (cell culture media without AGS cells) and Group 7 (10% ethanol in cell culture media) were added directly into chambers of the 12 well plate to examine the in vitro antitumor activity of these solutions against AGS cancer cells.
(§2) Each 12 well plate chamber was seeded with AGS cells (2×10^4 cells/well). The 12 well plates were maintained at 37° C. in a humidified incubator containing 5% CO2 for 48 hours prior to dosing. To create a drug depot at dosing time, 2 μL of each of the ISG everolimus formulation (90 μg everolimus/well), the ISG trametinib formulation (90 μg trametinib/well) and ISG everolimus-trametinib (90 μg everolimus+90 μg trametinib) formulations were added directly into the media of each corresponding plate well and maintained at 37° C. in a humidified incubator for the duration of the experiment. […]
(§3) Briefly, 100 μL of PBS solution containing the XTT substrate (50 mg/mL) was added to each 12-well plate and the plates were incubated at 37° C. for 4 h. […] The solution of each well was transferred to a 96-well plate (triplicate for wells 1 and 2 and duplicate for well 3) and read using a microplate reader (Bio-teck XLS800; Bio-Tek Instruments City of Industry, CA). The optical density of the formazan product of each well was measured at a wavelength of 450 nm and a reference wavelength of 630 nm. […]

[4] = test system: MIA PaCa-2 pancreatic cell line; test: In vitro cytotoxicity study, XTT assay; type: cell-based, human; conditions: MIA PaCa-2 cells
Description: as §1, §2, §3

[5] = test system: SW403 colorectal cell line; test: In vitro cytotoxicity study, XTT assay; type: cell-based, human; conditions: SW403 cells
Description: as §1, §2, §3

[6] = test system: AGS cells; test: In vitro cytotoxicity study, XTT assay; type: cell-based, human
Description: as §1, with “cells. […]” for “cells.”
as §3

SMILES | stability of EVE as free form in aqueous solution [1] | stability of EVE inside the microsphere [2] | in vitro cytotoxicity (XTT) [3] | in vitro cytotoxicity (XTT) [4] | in vitro cytotoxicity (XTT) [5] | in vitro cytotoxicity (XTT), ethanol treatment alone ([6]; 10% ethanol in cell culture media, 72 h time point) | in vitro cytotoxicity (XTT) ([6]; 24 and 72 h of exposure)
CO[C@H]1C[C@@H]2CC[C@@H](C)[C@@](O)(O2)C(=O)C(=O)N2CCCC[C@H]2C(=O)O[C@H]([C@H](C)C[C@@H]2CC[C@@H](OCCO)[C@H](OC)C2)CC(=O)[C@H](C)/C=C(\C)[C@@H](O)[C@@H](OC)C(=O)[C@H](C)C[C@H](C)/C=C/C=C/C=C/1C [EVE, everolimus] | degrade quickly in aqueous solution as free form | stable inside the microsphere |  |  |  |  | 
CCO [ethanol] |  |  | ablation with a complete cytotoxic effect on the cancer cells | ablation with a complete cytotoxic effect on the cancer cells | ablation with a complete cytotoxic effect on the cancer cells | complete ablation and cytotoxicity of the cancer cells | ablation with a complete cytotoxic effect on the cancer cells
